Source: article PMC5704913 (Toxicology and applied pharmacology, 2017)
“Also recorded” adds a separate entry of the source.

Key:
MPTP-treated mice = settings: oral administration; ref Liang et al., 2007; cited from earlier work
SOD activity assay = assay type: biochemical; settings: unit = amount that inhibits one-half the formation of adrenochrome at pH 10.2
H2O2 scavenging assay = assay type: biochemical; settings: read-out: H2O2 IC50; concentration that scavenged 50% of H2O2; 50 µM H2O2, 1 minute
[1] = test system: respiring brain mitochondria; settings: ref Castello et al., 2008; cited from earlier work
C57BL/6 mice = experiment: Open field test and accelerated rotarod test; assay type: in vivo; settings: 15 mg/kg i.p. daily for 7 days
[2] = Brain manganese levels by ICPMS after 7 days daily dosing; assay type: in vivo, C57BL/6 mice; settings: 15 mg/kg i.p. daily for 7 days

IC50 (H2O2 scavenging assay)	SMILES	effect on MPTP-induced neurotoxicity (in words) (MPTP-treated mice)	SOD Activity (SOD activity assay)	H2O2 scavenging in respiring brain mitochondria (in words) [1]	neurobehavioral changes (open field, rotarod) vs vehicle (C57BL/6 mice)	brain manganese levels vs vehicle (in words) [2]	increase of brain manganese levels [2]
104 nM	COC(=O)c1c2nc(c(C(F)(F)F)c3ccc([n-]3)c(C(=O)OC)c3nc(c(C(F)(F)F)c4ccc1[n-]4)C=C3)C=C2.[Cl-].[Mn+3] [AEOL 11207]	inhibited MPTP-induced neurotoxicity	124 U/mg	potent H2O2 scavengers			
	[Cl][Mn][Cl] [MnCl2]				significant deficit in movement; also recorded: significant rotarod deficit	increased brain manganese levels significantly	~ 10 fold
